The values that follow come from US8680012B2, “4-phenyl-pyrane-3,5-diones,4-phenyl-thiopyrane-3,6-diones and cyclohexanetriones as novel herbicides” (Syngenta Crop Protection LLC, priority 2006, dated 2014).

Structures are written as SMILES.

What all share (format): in vivo
The test system of assay [1] is Amaranthus retroflexus (AMARE). Kind of assay: Example B pre-emergence herbicidal activity, glasshouse pot test. The following applies: 312 h, evaluated after 13 days, read-out: Pre-emergence activity AMARE (100=total damage to plant; 0=no damage to plant); for pest or weed control at 1000 g/ha: rate 1000 g/ha. In outline: (§1)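 Spray application in 50:50 acetone/water with 0.5% Tween 20, pre-emergence at 1 day or post-emergence at 8 days after sowing. Evaluated visually at 13 days on a 0–100 damage scale.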

Assay [2] concerns Solanum nigrum (SOLNI). The assay is described as above. The following applies: 312 h, evaluated after 13 days, read-out: Pre-emergence activity SOLNI (100=total damage to plant; 0=no damage to plant); for pest or weed control at 1000 g/ha: rate 1000 g/ha. The essentials: as §1
Assay [3] has as its system Setaria faberi (SETFA). The description is as above. The following applies: 312 h, evaluated after 13 days, read-out: Pre-emergence activity SETFA (100=total damage to plant; 0=no damage to plant); for pest or weed control at 1000 g/ha: rate 1000 g/ha. The essentials: as §1
Assay [4] concerns Echinochloa crus-galli (ECHCG). The assay is described as above. Particulars: 312 h, evaluated after 13 days, read-out: Pre-emergence activity ECHCG (100=total damage to plant; 0=no damage to plant); for pest or weed control at 1000 g/ha: rate 1000 g/ha. In outline:
as §1

For assay [5], the system named is Alopecurus myosuroides (ALOMY). The description is as above. Particulars: 312 h, evaluated after 13 days, read-out: Pre-emergence activity ALOMY (100=total damage to plant; 0=no damage to plant); for pest or weed control at 1000 g/ha: rate 1000 g/ha. In outline: as §1
Assay [6] deals with Avena fatua (AVEFA). The description is as above. The following applies: 312 h, evaluated after 13 days, read-out: Pre-emergence activity AVEFA (100=total damage to plant; 0=no damage to plant); for pest or weed control at 1000 g/ha: rate 1000 g/ha. In outline:
as §1

The subject of assay [7] is Amaranthus retroflexus (AMARE). Kind of assay: Example B post-emergence herbicidal activity, glasshouse pot test. The following applies: 312 h, evaluated after 13 days, read-out: Post-emergence activity AMARE (100=total damage to plant; 0=no damage to plant); for pest or weed control at 1000 g/ha: rate 1000 g/ha. In outline:
as §1

The subject of assay [8] is Solanum nigrum (SOLNI). Described as above. Particulars: 312 h, evaluated after 13 days, read-out: Post-emergence activity SOLNI (100=total damage to plant; 0=no damage to plant); for pest or weed control at 1000 g/ha: rate 1000 g/ha. In outline: as §1
Assay [9] has as its system Setaria faberi (SETFA). Described as above. The following applies: 312 h, evaluated after 13 days, read-out: Post-emergence activity SETFA (100=total damage to plant; 0=no damage to plant); for pest or weed control at 1000 g/ha: rate 1000 g/ha. In outline: as §1
Assay [10] concerns Echinochloa crus-galli (ECHCG). Described as above. The following applies: 312 h, evaluated after 13 days, read-out: Post-emergence activity ECHCG (100=total damage to plant; 0=no damage to plant); for pest or weed control at 1000 g/ha: rate 1000 g/ha. The essentials:
as §1

For assay [11], the system named is Alopecurus myosuroides (ALOMY). The description is as above. Particulars: 312 h, evaluated after 13 days, read-out: Post-emergence activity ALOMY (100=total damage to plant; 0=no damage to plant); for pest or weed control at 1000 g/ha: rate 1000 g/ha. In outline:
as §1

Assay [12] has as its system Avena fatua (AVEFA). The assay is described as above. Particulars: 312 h, evaluated after 13 days, read-out: Post-emergence activity AVEFA (100=total damage to plant; 0=no damage to plant); for pest or weed control at 1000 g/ha: rate 1000 g/ha. The essentials:
as §1

With `Cc1ccc(-c2ccc(Oc3ccccc3)cc2)cc1C1=C(O)C(C)(C)OC(C)(C)C1=O` [Compound A-16], the pest or weed control at 1000 g/ha in assay [1] stood at 0%; in the assay with Solanum nigrum (SOLNI) [2] it was 0%; in the assay with Setaria faberi (SETFA) [3], 100%; in assay [4], 100%; in [5], 30%; with Avena fatua (AVEFA) [6], 20%. Moreover, the pest or weed control at 1000 g/ha in [7] came to 40%; with Solanum nigrum (SOLNI) [8] it was 10%; in the assay on Setaria faberi (SETFA) [9], 100%; in assay [10], 100%; in assay [11] it was 30%; in the assay with Avena fatua (AVEFA) [12] it was 30%.
`CCc1ccc(-c2ccc(Cl)cc2)cc1C1=C(OC(=O)COC)C(C)(C)OC(C)(C)C1=O` [Compound D-12]: the pest or weed control at 1000 g/ha in assay [1] is 0%; in the assay with Solanum nigrum (SOLNI) [2], 0%; in the assay on Setaria faberi (SETFA) [3], 100%; in assay [4], 100%; in assay [5], 90%; with Avena fatua (AVEFA) [6], 60%. The pest or weed control at 1000 g/ha in [7] stood at 0%; in the assay on Solanum nigrum (SOLNI) [8], 0%; in the assay with Setaria faberi (SETFA) [9], 100%; in assay [10], 100%; in assay [11] it was 90%; in the assay on Avena fatua (AVEFA) [12], 90%.
As for `Cc1ccc(-c2cccc(C#N)c2)cc1C1=C(O)C(C)(C)OC(C)(C)C1=O` [Compound A-22], the pest or weed control at 1000 g/ha was found to be 30% in assay [1]; 60% in the assay with Solanum nigrum (SOLNI) [2]; 40% in the assay on Setaria faberi (SETFA) [3]; 90% in assay [4]; 40% in assay [5]; 20% with Avena fatua (AVEFA) [6]. Moreover, the pest or weed control at 1000 g/ha in assay [7] amounted to 0%; in the assay on Solanum nigrum (SOLNI) [8] it was 90%; in the assay with Setaria faberi (SETFA) [9], 20%; in [10], 80%; in assay [11] it was 30%; in the assay on Avena fatua (AVEFA) [12], 0%.
Regarding `CCc1ccc(-c2ccc(Cl)c(C(F)(F)F)c2)cc1C1=C(O)C(C)(C)C(=O)C(C)(C)C1=O` [Compound B-10], the pest or weed control at 250 g/ha was 0% in assay [1] (rate 250 g/ha); 20% in the assay with Solanum nigrum (SOLNI) [2] (rate 250 g/ha); 50% in the assay with Setaria faberi (SETFA) [3] (rate 250 g/ha); 30% in [4] (rate 250 g/ha); 0% in [5] (rate 250 g/ha); 0% in the assay with Avena fatua (AVEFA) [6] (rate 250 g/ha). For the same compound, the pest or weed control at 250 g/ha in assay [7] (rate 250 g/ha) was found to be 40%; in the assay on Solanum nigrum (SOLNI) [8] (rate 250 g/ha), 0%; in the assay on Setaria faberi (SETFA) [9] (rate 250 g/ha), 80%; in assay [10] (rate 250 g/ha) it was 90%; in assay [11] (rate 250 g/ha), 40%; in the assay with Avena fatua (AVEFA) [12] (rate 250 g/ha) it was 20%.
As for `Cc1ccc(-c2cc(F)c(F)c(F)c2)cc1C1=C(O)C(C)(C)OC(C)(C)C1=O` [Compound A-31], the pest or weed control at 1000 g/ha was determined as 0% in assay [1]; 0% in the assay on Solanum nigrum (SOLNI) [2]; 100% with Setaria faberi (SETFA) [3]; 100% in assay [4]; 50% in assay [5]; 0% in the assay on Avena fatua (AVEFA) [6]. Further, the pest or weed control at 1000 g/ha in [7] is 0%; in the assay with Solanum nigrum (SOLNI) [8], 60%; in the assay with Setaria faberi (SETFA) [9], 100%; in assay [10], 100%; in assay [11] it was 100%; in the assay with Avena fatua (AVEFA) [12], 90%.
With `Cc1ccc(-c2ccc(C#N)cc2)cc1C1=C(O)C(C)(C)OC(C)(C)C1=O` [Compound A-20], the pest or weed control at 1000 g/ha was 0% in assay [1]; 40% in the assay on Solanum nigrum (SOLNI) [2]; 100% in the assay with Setaria faberi (SETFA) [3]; 100% in assay [4]; 90% in [5]; 60% in the assay on Avena fatua (AVEFA) [6]. For the same compound, the pest or weed control at 1000 g/ha amounted to 20% in [7]; 80% in the assay with Solanum nigrum (SOLNI) [8]; 100% with Setaria faberi (SETFA) [9]; 100% in assay [10]; 90% in assay [11]; 90% with Avena fatua (AVEFA) [12].
As to `CCc1ccc(-c2ccc(Cl)cc2)cc1C1=C(OC(=O)C(C)CC)C(C)(C)OC(C)(C)C1=O` [Compound D-11], the pest or weed control at 1000 g/ha in assay [1] came out at 0%; in the assay on Solanum nigrum (SOLNI) [2], 0%; with Setaria faberi (SETFA) [3], 90%; in assay [4], 20%; in [5] it was 20%; with Avena fatua (AVEFA) [6], 0%. In addition, the pest or weed control at 1000 g/ha worked out at 0% in [7]; 0% in the assay with Solanum nigrum (SOLNI) [8]; 90% with Setaria faberi (SETFA) [9]; 100% in assay [10]; 40% in [11]; 0% in the assay on Avena fatua (AVEFA) [12].
For `CCc1ccc(-c2ccc(Cl)cc2)cc1C1=C(OC(=O)C2CC2)C(C)(C)OC(C)(C)C1=O` [Compound D-10], the pest or weed control at 1000 g/ha in assay [1] turned out to be 0%; with Solanum nigrum (SOLNI) [2], 0%; in the assay on Setaria faberi (SETFA) [3], 100%; in [4], 100%; in [5] it was 50%; in the assay on Avena fatua (AVEFA) [6], 0%. Also, the pest or weed control at 1000 g/ha in assay [7] worked out at 20%; with Solanum nigrum (SOLNI) [8] it was 0%; in the assay with Setaria faberi (SETFA) [9] it was 100%; in assay [10], 100%; in assay [11], 90%; with Avena fatua (AVEFA) [12], 20%.
Turning to `CCc1ccc(-c2ccc(Cl)cc2)cc1C1=C(OC(=O)C(C)OC)C(C)(C)OC(C)(C)C1=O` [Compound D-19], the pest or weed control at 1000 g/ha in assay [1] is 0%; in the assay on Solanum nigrum (SOLNI) [2], 0%; in the assay on Setaria faberi (SETFA) [3], 100%; in [4] it was 100%; in assay [5] it was 70%; in the assay with Avena fatua (AVEFA) [6] it was 20%. Further, the pest or weed control at 1000 g/ha in assay [7] came to 0%; in the assay on Solanum nigrum (SOLNI) [8], 0%; in the assay with Setaria faberi (SETFA) [9], 100%; in [10], 100%; in assay [11], 90%; in the assay with Avena fatua (AVEFA) [12], 80%.
